Measurements: the NIST ThermoML archive (doi:10.1021/je0501991)
Numbers after ± are expanded uncertainties.

Assays:
[1] = molar heat capacity at constant pressure; xn = mol fraction of the nth substance listed; conditions: 101.33 kPa, Liquid
[2] = refractive index (Na D-line) (dimensionless); xn = mol fraction of the nth substance listed; conditions: 308.15 K, 101.33 kPa, Liquid, Standard Abbe refractometry
[3] = xn = mol fraction of the nth substance listed; conditions: 308.15 K, 101.33 kPa, Liquid
[4] = excess molar enthalpy (molar enthalpy of mixing); xn = mol fraction of the nth substance listed; conditions: 308.15 K, 101.33 kPa, Liquid

OCCc1ccccc1 [2-phenylethanol] + C[S+](C)[O-]
molar heat capacity at constant pressure [J/K/mol], [1]
Conditions | 298.15 K | 308.15 K | 318.15 K
x2 = 0 | 239.6 ± 19 | 245.3 ± 20 | 251.6 ± 20
x2 = 0.08581 | 235 ± 19 | 240.8 ± 19 | 246.5 ± 20
x2 = 0.1638 | 218.3 ± 18 | 223.2 ± 18 | 228.7 ± 18
x2 = 0.2999 | 190.7 ± 15 | 194.2 ± 16 | 198.1 ± 16
x2 = 0.4205 | 185 ± 15 | 188.4 ± 15 | 191.3 ± 15
x2 = 0.519 | 185.5 ± 15 | 188.2 ± 15 | 190.7 ± 15
x2 = 0.6293 | 169.3 ± 14 | 171.3 ± 14 | 173.6 ± 14
x2 = 0.6713 | 171 ± 14 | 172.8 ± 14 | 174.9 ± 14
x2 = 0.7066 | 162.6 ± 13 | 164.6 ± 13 | 166.5 ± 13
x2 = 0.7919 | 162.7 ± 13 | 164.8 ± 13 | 166.8 ± 13
x2 = 0.8596 | 156.2 ± 12 | 157.3 ± 13 | 159.1 ± 13
x2 = 0.937 | 157.8 ± 13 | 159.6 ± 13 | 160 ± 13
x2 = 0.9688 | 143.5 ± 12 | 144.8 ± 12 | 145.9 ± 12

Conditions | excess molar enthalpy [kcal/mol] | mass density [kg/m3] | refractive index | viscosity [mPa·s]
[2], x2 = 0.0435 | – | – | 1.5257 ± 0.0007 | –
[2], x2 = 0.1521 | – | – | 1.5224 ± 0.0007 | –
[2], x2 = 0.2758 | – | – | 1.5179 ± 0.0007 | –
[2], x2 = 0.3564 | – | – | 1.5145 ± 0.0007 | –
[2], x2 = 0.4566 | – | – | 1.5099 ± 0.0007 | –
[2], x2 = 0.5477 | – | – | 1.5052 ± 0.0007 | –
[2], x2 = 0.6247 | – | – | 1.5008 ± 0.0007 | –
[2], x2 = 0.7102 | – | – | 1.4956 ± 0.0007 | –
[2], x2 = 0.7707 | – | – | 1.4916 ± 0.0007 | –
[2], x2 = 0.8346 | – | – | 1.487 ± 0.0007 | –
[2], x2 = 0.8653 | – | – | 1.4846 ± 0.0007 | –
[2], x2 = 0.9433 | – | – | 1.4783 ± 0.0007 | –
[3], x2 = 0.0435 | – | 1011.25 ± 0.53 | – | 7.049 ± 0.11
[3], x2 = 0.1521 | – | 1017.45 ± 0.49 | – | 6.133 ± 0.097
[3], x2 = 0.2758 | – | 1024.6 ± 0.44 | – | 5.162 ± 0.081
[3], x2 = 0.3564 | – | 1029.49 ± 0.42 | – | 4.611 ± 0.072
[3], x2 = 0.4566 | – | 1035.91 ± 0.39 | – | 3.976 ± 0.062
[3], x2 = 0.5477 | – | 1042.18 ± 0.37 | – | 3.446 ± 0.053
[3], x2 = 0.6247 | – | 1047.95 ± 0.35 | – | 3.052 ± 0.046
[3], x2 = 0.7102 | – | 1054.95 ± 0.34 | – | 2.652 ± 0.04
[3], x2 = 0.7707 | – | 1060.33 ± 0.33 | – | 2.398 ± 0.036
[3], x2 = 0.8346 | – | 1066.5 ± 0.33 | – | 2.157 ± 0.032
[3], x2 = 0.8653 | – | 1069.64 ± 0.33 | – | 2.056 ± 0.031
[3], x2 = 0.9433 | – | 1078.31 ± 0.33 | – | 1.806 ± 0.027
[4], x2 = 0.0655 | -0.093 ± 0.00191 | – | – | –
[4], x2 = 0.123 | -0.15 ± 0.00287 | – | – | –
[4], x2 = 0.1738 | -0.185 ± 0.00359 | – | – | –
[4], x2 = 0.219 | -0.207 ± 0.00382 | – | – | –
[4], x2 = 0.2961 | -0.226 ± 0.0043 | – | – | –
[4], x2 = 0.3593 | -0.233 ± 0.0043 | – | – | –
[4], x2 = 0.4569 | -0.222 ± 0.00406 | – | – | –
[4], x2 = 0.5286 | -0.207 ± 0.00382 | – | – | –
[4], x2 = 0.6273 | -0.175 ± 0.00335 | – | – | –
[4], x2 = 0.7163 | -0.137 ± 0.00263 | – | – | –
[4], x2 = 0.7709 | -0.112 ± 0.00215 | – | – | –
[4], x2 = 0.8347 | -0.0825 ± 0.00167 | – | – | –
[4], x2 = 0.8707 | -0.0643 ± 0.00143 | – | – | –
[4], x2 = 0.9099 | -0.0459 ± 0.0012 | – | – | –
[4], x2 = 0.9309 | -0.0351 ± 0.000956 | – | – | –
[4], x2 = 0.9528 | -0.0234 ± 0.000717 | – | – | –
[4], x2 = 0.9759 | -0.012 ± 0.000478 | – | – | –

OCc1ccccc1 [benzenemethanol] + C[S+](C)[O-]
molar heat capacity at constant pressure [J/K/mol], [1]
Conditions | 298.15 K | 308.15 K | 318.15 K
x2 = 0 | 200.4 ± 16 | 203.9 ± 16 | 207.2 ± 17
x2 = 0.08706 | 196.4 ± 16 | 201.5 ± 16 | 206.4 ± 16
x2 = 0.1439 | 189.3 ± 15 | 193.7 ± 16 | 198.6 ± 16
x2 = 0.2708 | 168.3 ± 14 | 172.9 ± 14 | 177 ± 14
x2 = 0.3817 | 167 ± 13 | 170.3 ± 14 | 174.1 ± 14
x2 = 0.4964 | 162.3 ± 13 | 164.4 ± 13 | 166.7 ± 13
x2 = 0.5422 | 160.1 ± 13 | 162.4 ± 13 | 164.9 ± 13
x2 = 0.5966 | 159.3 ± 13 | 161.5 ± 13 | 163.6 ± 13
x2 = 0.6863 | 146.6 ± 12 | 149.1 ± 12 | 150.8 ± 12
x2 = 0.7711 | 146.9 ± 12 | 148.1 ± 12 | 149.8 ± 12
x2 = 0.8577 | 149.7 ± 12 | 151.2 ± 12 | 152.5 ± 12
x2 = 0.9237 | 149 ± 12 | 150.2 ± 12 | 151.4 ± 12
x2 = 0.9508 | 146.4 ± 12 | 147.6 ± 12 | 148.8 ± 12

Conditions | excess molar enthalpy [kcal/mol] | mass density [kg/m3] | refractive index | viscosity [mPa·s]
[2], x2 = 0.0641 | – | – | 1.5328 ± 0.0007 | –
[2], x2 = 0.1255 | – | – | 1.5297 ± 0.0007 | –
[2], x2 = 0.2283 | – | – | 1.5252 ± 0.0007 | –
[2], x2 = 0.3275 | – | – | 1.5204 ± 0.0007 | –
[2], x2 = 0.4152 | – | – | 1.5157 ± 0.0007 | –
[2], x2 = 0.5117 | – | – | 1.5099 ± 0.0007 | –
[2], x2 = 0.5942 | – | – | 1.5048 ± 0.0007 | –
[2], x2 = 0.6646 | – | – | 1.4998 ± 0.0007 | –
[2], x2 = 0.7406 | – | – | 1.4946 ± 0.0007 | –
[2], x2 = 0.8125 | – | – | 1.4891 ± 0.0007 | –
[2], x2 = 0.8745 | – | – | 1.4838 ± 0.0007 | –
[2], x2 = 0.9388 | – | – | 1.4785 ± 0.0007 | –
[3], x2 = 0.0641 | – | 1037.17 ± 0.26 | – | 3.957 ± 0.06
[3], x2 = 0.1255 | – | 1040.32 ± 0.27 | – | 3.787 ± 0.057
[3], x2 = 0.2283 | – | 1045.4 ± 0.27 | – | 3.49 ± 0.053
[3], x2 = 0.3275 | – | 1050.05 ± 0.28 | – | 3.201 ± 0.048
[3], x2 = 0.4152 | – | 1054.07 ± 0.29 | – | 2.949 ± 0.044
[3], x2 = 0.5117 | – | 1058.52 ± 0.3 | – | 2.686 ± 0.04
[3], x2 = 0.5942 | – | 1062.41 ± 0.3 | – | 2.477 ± 0.037
[3], x2 = 0.6646 | – | 1065.87 ± 0.31 | – | 2.306 ± 0.035
[3], x2 = 0.7406 | – | 1069.8 ± 0.31 | – | 2.134 ± 0.032
[3], x2 = 0.8125 | – | 1073.74 ± 0.32 | – | 1.988 ± 0.03
[3], x2 = 0.8745 | – | 1077.57 ± 0.33 | – | 1.858 ± 0.028
[3], x2 = 0.9388 | – | 1081.3 ± 0.33 | – | 1.748 ± 0.026
[4], x2 = 0.0571 | -0.114 ± 0.00215 | – | – | –
[4], x2 = 0.108 | -0.194 ± 0.00359 | – | – | –
[4], x2 = 0.1537 | -0.249 ± 0.00454 | – | – | –
[4], x2 = 0.195 | -0.291 ± 0.00526 | – | – | –
[4], x2 = 0.2666 | -0.332 ± 0.00598 | – | – | –
[4], x2 = 0.3264 | -0.358 ± 0.00645 | – | – | –
[4], x2 = 0.4209 | -0.358 ± 0.00645 | – | – | –
[4], x2 = 0.492 | -0.34 ± 0.00621 | – | – | –
[4], x2 = 0.5924 | -0.304 ± 0.0055 | – | – | –
[4], x2 = 0.6856 | -0.247 ± 0.00454 | – | – | –
[4], x2 = 0.744 | -0.201 ± 0.00382 | – | – | –
[4], x2 = 0.8135 | -0.147 ± 0.00287 | – | – | –
[4], x2 = 0.8532 | -0.118 ± 0.00239 | – | – | –
[4], x2 = 0.8971 | -0.0825 ± 0.00167 | – | – | –
[4], x2 = 0.9208 | -0.0614 ± 0.00143 | – | – | –
[4], x2 = 0.9457 | -0.0392 ± 0.000956 | – | – | –
[4], x2 = 0.9721 | -0.021 ± 0.000717 | – | – | –
